Earlier results in patent US8980929B2, “Substituted seven-membered heterocyclic compounds as dipeptidyl peptidase-iv inhibitors for the treatment of diabetes” (Merck Sharp & Dohme Corp., priority 2010, dated 2015).

Legend:
[1] = molecular target: DPP-4 (Homo sapiens (Human), UniProt P27487)
[2] = tested on: cardiac allograft; conditions: rats; doubled from day 7
[3] = tested on: hematopoiesis; conditions: mouse, cyclophosphamide-induced neutropenia

Chain of DPP-4 (P27487 whole entry, species assumed): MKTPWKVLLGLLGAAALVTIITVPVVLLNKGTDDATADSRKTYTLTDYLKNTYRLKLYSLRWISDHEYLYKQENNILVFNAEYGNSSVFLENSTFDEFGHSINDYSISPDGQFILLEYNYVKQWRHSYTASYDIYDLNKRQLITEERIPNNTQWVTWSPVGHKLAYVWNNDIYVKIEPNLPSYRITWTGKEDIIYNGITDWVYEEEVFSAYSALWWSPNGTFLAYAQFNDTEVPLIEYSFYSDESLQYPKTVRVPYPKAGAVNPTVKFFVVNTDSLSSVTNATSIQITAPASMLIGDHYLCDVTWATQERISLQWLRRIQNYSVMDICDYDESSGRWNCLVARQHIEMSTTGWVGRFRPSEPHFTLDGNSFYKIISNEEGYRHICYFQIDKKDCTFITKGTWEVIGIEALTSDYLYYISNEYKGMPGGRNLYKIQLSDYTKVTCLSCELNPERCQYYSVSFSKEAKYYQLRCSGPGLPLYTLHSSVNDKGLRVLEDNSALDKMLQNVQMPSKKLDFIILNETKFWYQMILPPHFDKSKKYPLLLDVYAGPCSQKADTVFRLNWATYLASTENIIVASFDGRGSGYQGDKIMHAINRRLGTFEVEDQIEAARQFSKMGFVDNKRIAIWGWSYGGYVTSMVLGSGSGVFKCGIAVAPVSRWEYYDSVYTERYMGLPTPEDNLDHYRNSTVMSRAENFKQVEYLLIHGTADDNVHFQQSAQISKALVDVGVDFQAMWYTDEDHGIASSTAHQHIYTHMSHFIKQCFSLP

Compound: diprotin A
- degradation of GRF to GRF[3-44] in plasma [1]: prevented

Compound: CC(C)N1CCC(c2ccccc2)(c2ccccc2)CC1 [Prodipine, Pro-Pro-diphenyl-phosphonate]
- cardiac allograft survival [2]: 14 day

Compound: CC(C)[C@H](N)C(=O)N1CCC[C@H]1B(O)O [Val-Boro-Pro]
- hematopoiesis [3]: stimulated hematopoiesis
